Tested on: experimentally induced osteoarthritis
Experiment: experimentally induced osteoarthritis in guinea pigs (partial medial meniscectomy), joint histology
Assay type: in vivo, Dunkin Hartley guinea pigs
Settings: 1, 3 and 10 mg/kg/day orally by gavage, 10 weeks, operated right hind leg joint, blinded pathologist
Experimental: The following description gives evidence on which the invention is based.
Dunkin Hartley guinea pigs(apart from the blank control) were anaesthetised and underwent partial medial meniscectomy in the right hind leg. 3 doses of +mefloquine, (1 mg/kg/day, 3 mg/kg/day and 10 mg/kg/day) were administered orally by gavage to groups of 10 animals as well as a vehicle control. The vehicle was 0.2% methylcellulose and 0.4% Tween 80 in bidistilled water for the mefloquine groups. The administration volume was 2 mL/kg.
The animals were followed for 10 weeks. Terminal blood samples were taken for drug levels. Histology was performed on the joint, which was operated on, and an assessment of the cartilage structure, cell proliferation and loss of proteoglycans was made. The histology was performed by a blinded pathologist.

In the case of `O[C@H](c1cc(C(F)(F)F)nc2c(C(F)(F)F)cccc12)[C@@H]1CCCCN1` [+mefloquine, (+)-erythro-mefloquine], the “degeneration of cartilage (histology: cartilage structure, cell proliferation, loss of proteoglycans)” value is reported as “prevents the degeneration of cartilage”.

From US20040220221A1, “Treatment of degenerative diseases” (priority 2002, published 2004)
